Data as given in patent publication US11254663B2 (BRISTOL-MYERS SQUIBB COMPANY, priority 2019, dated 2022).

What was measured:
[1] = T2DM patients with NAFLD, 6-week clinical trial; cited from earlier work
[2] = patients with NASH, 72-week clinical trial; cited from earlier work
[3] = molecular target: FXR (Homo sapiens (Human), UniProt Q96RI1); experiment: FXR EC50 (FXR agonist potency reported with each Example); assay type: cell-based
Chain of FXR (Q96RI1 262-486): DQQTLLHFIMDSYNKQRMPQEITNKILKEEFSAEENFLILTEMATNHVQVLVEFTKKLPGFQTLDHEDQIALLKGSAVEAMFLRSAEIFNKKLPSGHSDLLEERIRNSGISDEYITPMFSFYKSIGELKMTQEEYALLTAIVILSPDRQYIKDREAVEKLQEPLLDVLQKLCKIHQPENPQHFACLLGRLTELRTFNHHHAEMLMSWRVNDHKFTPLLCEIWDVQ

Which body weight [1] does the source give for CC[C@H]1[C@@H](O)[C@@H]2[C@H](CC[C@]3(C)[C@@H]([C@H](C)CCC(=O)O)CC[C@@H]23)[C@@]2(C)CC[C@@H](O)C[C@@H]12 [OCA, obeticholic acid] here?
Its body weight is “reduced body weight”.

And the insulin sensitivity [1]?
The insulin sensitivity was “statistically significantly improved insulin sensitivity”.

And the “hepatic steatosis, lobular inflammation, hepatocyte ballooning, and fibrosis as assessed by histological analyses of liver biopsies” value [2]?
Its value is “statistically significantly improved hepatic steatosis, lobular inflammation, hepatocyte ballooning, and fibrosis”.

With COc1ccc(NC(=O)N(CC23CCC(c4nc(C5CC5)no4)(CC2)CC3)c2cccc(-c3nc(C4CC4)no3)c2)cc1 [Example 96, 1-((4-(3-cyclopropyl-1,2,4-oxadiazol-5-yl)bicyclo[2.2.2]octan-1-yl)methyl)-1-(3-(3-cyclopropyl-1,2,4-oxadiazol-5-yl)phenyl)-3-(4-methoxyphenyl)urea] as the compound, how does the EC50 [3] read?
Its EC50 is 647 nM.

For O=C(C1CC(F)(F)C1)N(CC12CCC(c3nc(C4CC4)no3)(CC1)CC2)c1cccc(-c2cnc(C3CC3)o2)c1 [Example 22, N-((4-(3-cyclopropyl-1,2,4-oxadiazol-5-yl)bicyclo[2.2.2]octan-1-yl)methyl)-N-(3-(2-cyclopropyloxazol-5-yl)phenyl)-3,3-difluorocyclobutane-1-carboxamide], which EC50 [3] is on record?
The EC50 was 133 nM.

For O=C(C1CCC(F)(F)C1)N(CC12CCC(c3nc(CC4CC4)no3)(CC1)CC2)c1cccc(-c2nc(CC3CC3)no2)c1 (stereo not shown) [Example 62, N-((4-(3-(cyclopropylmethyl)-1,2,4-oxadiazol-5-yl)bicyclo[2.2.2]octan-1-yl)methyl)-N-(3-(3-(cyclopropylmethyl)-1,2,4-oxadiazol-5-yl)phenyl)-3,3-difluorocyclopentane-1-carboxamide], which EC50 [3] is on record?
Its EC50 is 363 nM.

For COc1cc(-c2cccc(N(CC34CCC(c5nc(C6CC6)no5)(CC3)CC4)C(=O)C34CC(F)(C3)C4)c2)ccn1 [Example 229, N-((4-(3-cyclopropyl-1,2,4-oxadiazol-5-yl)bicyclo[2.2.2]octan-1-yl)methyl)-3-fluoro-N-(3-(2-methoxypyridin-4-yl)phenyl)bicyclo[1.1.1]pentane-1-carboxamide], which EC50 [3] is on record?
Its EC50 is 154 nM.

With Cn1cc(-c2cccc(N(CC34CCC(c5nc(C6CC6)no5)(CC3)CC4)C(=O)C3CC(F)(F)C3)c2)nc1C1CC1 [Example 131, N-((4-(3-cyclopropyl-1,2,4-oxadiazol-5-yl)bicyclo[2.2.2]octan-1-yl)methyl)-N-(3-(2-cyclopropyl-1-methyl-1H-imidazol-4-yl)phenyl)-3,3-difluorocyclobutane-1-carboxamide] as the compound, how does the EC50 [3] read?
The EC50 was 1440 nM.

For O=C(C1CCC(F)(F)C1)N(CC12CCC(c3nc(C4CC4)no3)(CC1)CC2)c1cccc(-c2nc(C3CC3)no2)c1 (stereo not shown) [Example 11, N-((4-(3-cyclopropyl-1,2,4-oxadiazol-5-yl)bicyclo[2.2.2]octan-1-yl)methyl)-N-(3-(3-cyclopropyl-1,2,4-oxadiazol-5-yl)phenyl)-3,3-difluorocyclopentane-1-carboxamide], which EC50 [3] is on record?
Its EC50 is 282 nM.

For CC(C)(C)c1nc(C23CCC(CN(C(=O)C45CC(F)(C4)C5)c4cccc(-c5noc(C6(C)CC6)n5)c4)(CC2)CC3)no1 [Example 177, N-((4-(5-(tert-butyl)-1,2,4-oxadiazol-3-yl)bicyclo[2.2.2]octan-1-yl)methyl)-3-fluoro-N-(3-(5-(1-methylcyclopropyl)-1,2,4-oxadiazol-3-yl)phenyl)bicyclo[1.1.1]pentane-1-carboxamide], which EC50 [3] is on record?
Its EC50 is 33 nM.

Which EC50 [3] does the source give for CC1(c2nc(C34CCC(CN(C(=O)C56CC(F)(C5)C6)c5cccc(-c6nnc(C7CC7)o6)c5)(CC3)CC4)no2)CC1 [Example 154, N-(3-(5-cyclopropyl-1,3,4-oxadiazol-2-yl)phenyl)-3-fluoro-N-((4-(5-(1-methylcyclopropyl)-1,2,4-oxadiazol-3-yl)bicyclo[2.2.2]octan-1-yl)methyl) bicyclo[1.1.1]pentane-1-carboxamide] here?
The EC50 was 27 nM.

Which EC50 [3] does the source give for CC(C)(O)c1coc(-c2cccc(N(CC34CCC(c5nc(C6CC6)no5)(CC3)CC4)C(=O)C34CC(F)(C3)C4)c2)n1 [Example 15, N-((4-(3-cyclopropyl-1,2,4-oxadiazol-5-yl)bicyclo[2.2.2]octan-1-yl)methyl)-3-fluoro-N-(3-(4-(2-hydroxypropan-2-yl)oxazol-2-yl)phenyl)bicyclo[1.1.1]pentane-1-carboxamide] here?
Its EC50 is 88 nM.

Which EC50 [3] does the source give for O=C(N1CCCC1)N(CC12CCC(c3nc(C4CC4)no3)(CC1)CC2)c1cccc(-c2nc(C3CC3)no2)c1 [Example 91, N-((4-(3-cyclopropyl-1,2,4-oxadiazol-5-yl)bicyclo[2.2.2]octan-1-yl)methyl)-N-(3-(3-cyclopropyl-1,2,4-oxadiazol-5-yl)phenyl)pyrrolidine-1-carboxamide] here?
Its EC50 is 322 nM.

For CCOc1cc(-c2cccc(N(CC34CCC(c5nc(C6CC6)no5)(CC3)CC4)C(=O)C34CC(F)(C3)C4)c2)ccn1 [Example 226, N-((4-(3-cyclopropyl-1,2,4-oxadiazol-5-yl)bicyclo[2.2.2]octan-1-yl)methyl)-N-(3-(2-ethoxypyridin-4-yl)phenyl)-3-fluorobicyclo[1.1.1]pentane-1-carboxamide], which EC50 [3] is on record?
Its EC50 is 219 nM.

With CCCc1ncc(-c2cccc(N(CC34CCC(c5cc(C(F)(F)F)ccn5)(CC3)CC4)C(=O)C34CC(F)(C3)C4)c2)o1 [Example 52, 3-fluoro-N-(3-(2-propyloxazol-5-yl)phenyl)-N-((4-(4-(trifluoromethyl)pyridin-2-yl)bicyclo[2.2.2]octan-1-yl)methyl)bicyclo[1.1.1]pentane-1-carboxamide] as the compound, how does the EC50 [3] read?
Its EC50 is 242 nM.

With N#CC1(c2ccc(C34CCC(CN(C(=O)C5CC(C(F)F)C5)c5cccc(-c6nnc(C7CC7)o6)c5)(CC3)CO4)cc2)CC1 (stereo not shown) [Example 144, N-((1-(4-(1-Cyanocyclopropyl)phenyl)-2-oxabicyclo[2.2.2]octan-4-yl)methyl)-N-(3-(5-cyclopropyl-1,3,4-oxadiazol-2-yl)phenyl)-3-(difluoromethyl)cyclobutane-1-carboxamide] as the compound, how does the EC50 [3] read?
Its EC50 is 2160 nM.

For CC(C)(C)c1noc(C23CCC(CN(C(=O)C45CC(F)(C4)C5)c4cccc(-c5noc(C6(C)CC6)n5)c4)(CC2)CC3)n1 [Example 176, N-((4-(3-(tert-butyl)-1,2,4-oxadiazol-5-yl)bicyclo[2.2.2]octan-1-yl)methyl)-3-fluoro-N-(3-(5-(1-methylcyclopropyl)-1,2,4-oxadiazol-3-yl)phenyl)bicyclo[1.1.1]pentane-1-carboxamide], which EC50 [3] is on record?
The EC50 was 24 nM.

For COc1nccc(C23CCC(CN(C(=O)C45CC(F)(C4)C5)c4cccc(-c5nc(C6CC6)no5)c4)(CC2)CC3)n1 [Example 148, N-(3-(3-cyclopropyl-1,2,4-oxadiazol-5-yl)phenyl)-3-fluoro-N-((4-(2-methoxypyrimidin-4-yl)bicyclo[2.2.2]octan-1-yl)methyl)bicyclo[1.1.1]pentane-1-carboxamide], which EC50 [3] is on record?
The EC50 was 687 nM.

Which EC50 [3] does the source give for O=C(N(CC12CCC(c3nc(C4CC4)no3)(CC1)CC2)c1cccc(-c2noc(C3(O)CC3)n2)c1)C12CC(F)(C1)C2 [Example 110, N-((4-(3-cyclopropyl-1,2,4-oxadiazol-5-yl)bicyclo[2.2.2]octan-1-yl)methyl)-3-fluoro-N-(3-(5-(1-hydroxycyclopropyl)-1,2,4-oxadiazol-3-yl)phenyl)bicyclo[1.1.1]pentane-1-carboxamide] here?
Its EC50 is 88 nM.
